Assay [1] has as its system membrane-cytoskeleton attachment in MSCs. Kind of assay: Force for membrane tether formation by AFM. Type of assay: cell-based. The conditions noted are these: CK869 treatment for 2 hours; within 4 hours of cell adhesion. The protocol:
Measurement of Force for Membrane Tether Formation by Atomic Force Microscopy (AFM). Membrane tethering force was measured by using 3D-BIO AFM (Asylum Research, Oxford Instruments) with TR400PSA cantilevers (OTR4; spring constant=30 pN/nm). Indentation depth for each measurement was 4 μm with a velocity of 2 μm/s, and the force curve for each measurement was recorded by the AFM software (AR14). For each cell, 25-50 force curves were analyzed. In force mode, the piezotranducer (PZT) was set to drive the cantilever to approach, touch, make an indentation, and retract over a predefined distance in the optical axis perpendicular to the cell surface. The force curve was generated from the recorded vertical-axis movement of the PZT and the deflection of the cantilever with a known dimension and a spring constant. In the force curve representing the retraction of the cantilever from a cell, a sudden release of force occurred at the rupture of a membrane tether was quantified via a custom MATLAB program.

In another assay the test system is F-actin in MSCs. The experiment in a line: Confocal imaging of F-actin in cells on hydrogels. Type of assay: cell-based. The conditions noted are these: CK869 for 2 hours; cell adhesion for 4 hours. As for the experimental part:
Sample Preparation for Imaging of F-Actin in Cells on Hydrogels. To prepare samples for F-actin imaging, glass bottom dishes (No 0., 35 mm; MatTek) were silanized, and a thin layer of PEG-DA hydrogel with varied elasticity was formed as described above. After cell seeding on hydrogels and culturing cells in the presence of DMSO or CK869, cells were permeabilized with 0.0015% saponin (Sigma) in a cytoskeleton buffer (10 mM MES, pH 6.0, 150 mM NaCl, 5 mM EGTA, 5 mM glucose, and 5 mM MgCl2) for 4 minutes at room temperature. The samples were then washed with the cytoskeleton buffer 3 times and fixed with 4% paraformaldehyde in the cytoskeleton buffer for 20 minutes at room temperature. After washing 3 times with the cytoskeleton buffer, the samples were reduced in 0.1% sodium borohydride in PBS for 20 minutes at room temperature. To label F-actin in cells, the samples were stained with a fluorescent stain sold under the tradename ALEXA FLUOR® 488 phalloidin (1:1000; Cayman) for confocal imaging or ALEXA FLUORO 647 phalloidin (1:10000; Cayman) for super-resolution imaging in PBS with 3% BSA for 40 minutes at room temperature. The samples were washed 3 times with PBS prior to imaging.
Confocal Imaging of F-actin. […] A mean projection image was created from each confocal stack, and average intensity ALEXA FLUOR® 488 phalloidin per cell was analyzed by ImageJ (NIH). […]

Turning to `COc1ccc(N2C(=O)CSC2c2cccc(Br)c2)c(OC)c1` (centres unmarked) [CK869], the “force of membrane tether formation” value in assay [1] is given as “slightly decreased tethering on the soft hydrogel”. Also, in the assay with F-actin in MSCs, the “mean intensity of phalloidin-labelled F-actin signal per cell” value was “decrease the signal intensity on both substrates”.

The values above are taken from patent US20230279379A1, “METHODS AND MICROFLUIDIC DEVICE FOR PRODUCING EXTRACELLULAR VESICLES” (THE BOARD OF TRUSTEES OF THE UNIVERSITY OF ILLINOIS, priority 2022, published 2023).
